Data set [1] in a line: Solubility Determination Assay in PBS pH 1.6 and pH 7.4. It counts as physicochemical. To be noted: PBS buffer, aqueous buffer, kinetic from dmso stock. A digest of the protocol:
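Compounds from 10 mM DMSO stock diluted into PBS pH 1.6 or pH 7.4 (15 μL into 485 μL), stirred 2 hours, then filtered. Filtrate quantified by LC-MS/MS against a standard of known concentration with internal standard; single determination.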

The target in data set [2] is T1, AHR (Homo sapiens, UniProt P35869).
T1 construct: other cell line with a DRE-luciferase reporter stably transfected; endogenous in cells; host or cells: HepG2 AhR-Lucia reporter cells
T1 sequence (P35869 11-848): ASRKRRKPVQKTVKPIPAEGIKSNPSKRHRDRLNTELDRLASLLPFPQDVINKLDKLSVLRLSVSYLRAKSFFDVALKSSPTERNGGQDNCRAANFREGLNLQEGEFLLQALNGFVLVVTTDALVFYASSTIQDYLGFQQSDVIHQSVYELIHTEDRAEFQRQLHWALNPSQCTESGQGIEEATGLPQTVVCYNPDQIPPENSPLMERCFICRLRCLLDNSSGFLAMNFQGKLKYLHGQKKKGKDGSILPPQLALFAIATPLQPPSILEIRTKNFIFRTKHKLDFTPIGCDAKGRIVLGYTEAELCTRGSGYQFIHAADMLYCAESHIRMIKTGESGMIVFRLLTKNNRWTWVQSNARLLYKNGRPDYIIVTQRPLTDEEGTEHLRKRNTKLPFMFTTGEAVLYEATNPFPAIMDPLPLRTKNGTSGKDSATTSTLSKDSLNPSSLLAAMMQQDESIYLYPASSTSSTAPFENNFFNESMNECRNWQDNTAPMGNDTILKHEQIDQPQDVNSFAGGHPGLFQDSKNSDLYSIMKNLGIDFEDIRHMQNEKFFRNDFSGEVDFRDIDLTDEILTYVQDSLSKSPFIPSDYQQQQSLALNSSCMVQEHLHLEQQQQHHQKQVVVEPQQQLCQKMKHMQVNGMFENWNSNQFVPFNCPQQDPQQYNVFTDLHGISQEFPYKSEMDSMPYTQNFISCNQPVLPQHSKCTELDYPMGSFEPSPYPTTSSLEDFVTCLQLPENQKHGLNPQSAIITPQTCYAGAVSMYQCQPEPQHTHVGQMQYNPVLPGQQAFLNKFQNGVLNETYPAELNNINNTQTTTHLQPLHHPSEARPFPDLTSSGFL
Description: DRE-Luciferase Reporter Assay, HepG2 AhR-Lucia reporter cells. To be noted: with AHR activating ligand at EC50, read-out: HepG2-Luc IC50. It counts as cell-based. A digest of the protocol:
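Antagonism read as inhibition of agonist-driven secreted luciferase in stably DRE-reporter-transfected cells such as HepG2 AhR-Lucia. Agonist ligand at EC50 concentration added 1 hr post-plating alongside antagonist (log series, top 100 uM); supernatant read at 24 or 48 h, IC50 derived against agonist-only maximum.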
On the technique in general: In a reporter assay the amount or activity of a reporter protein is the signal.

[3] abbreviates: PBS pH 1.6, 25° C., read-out: Aq. Solubility at pH = 1.6.
The mark [4] stands for this setting: PBS pH 7.4, 25° C., read-out: Aq. Solubility at pH = 7.4.

pIC50: −log10 of the molar value. ≈ marks a conversion by molar mass, not a printed value. Read-outs that look alike come from different tables or passages of the source.

As to `O=c1c2cc(-c3ccc(C(F)(F)F)nc3)nc(-c3cccnc3)c2ncn1C[C@H](O)C(F)(F)F` [Compound 57], the solubility at 2 h in data set [1] (setting [3]) and in data set [1] (setting [4]) was no less than 1 µM throughout. Further, the pIC50 (in general, the negative decadic logarithm of the IC50, by convention in mol/L) in data set [2] was greater than 7.00.
On to `C[C@@H](CO)n1cnc2c(-c3cnsc3)nc(-c3ccc(Cl)cc3)cc2c1=O` [Compound 58], for which the solubility at 2 h in data set [1] (setting [3]) and in data set [1] (setting [4]) was less than 0.1 µM each time. In addition, the pIC50 in data set [2] is greater than 7.00.
Take `Cn1cc(-c2nc(-c3ccc(C(F)(F)F)nc3)cc3c(=O)n(CC(C)(C)O)cnc23)cn1` [Compound 60]: the solubility at 2 h in data set [1] (setting [3]) and in data set [1] (setting [4]) was no less than 1 µM throughout. Also, the pIC50 in data set [2] is greater than 7.00.
As to `C[C@@H](CO)n1cnc2c(-c3cccnc3)nc(-c3cnc(C4CC4)s3)cc2c1=O` [Compound 66], the solubility at 2 h in data set [1] (setting [3]) and in data set [1] (setting [4]) was no less than 1 µM throughout. Moreover, the negative logarithm of the IC50 (pIC50) in data set [2] was greater than 7.00.
Turning to `C[C@@H](CO)n1cnc2c(-c3cnn(C)c3)nc(-c3ccc(C(F)(F)F)nc3)cc2c1=O` [Compound 68], the solubility at 2 h in data set [1] (setting [3]) and in data set [1] (setting [4]) was no less than 1 µM in each case. In addition, in data set [2], the pIC50 was greater than 7.00.
Take `C[C@@H](CO)n1cnc2c(-c3cccnc3)nc(-c3ccc(C4CC4)nc3)cc2c1=O` [Compound 74]: the solubility at 2 h in data set [1] (setting [3]) and in data set [1] (setting [4]) was no less than 1 µM throughout. In data set [2], the pIC50 is greater than 7.00.
With `O=c1c2cc(-c3ccc(C(F)(F)F)nc3)nc(-c3cccnc3)c2ncn1[C@@H]1COC[C@H]1O` [Compound 79], the solubility at 2 h in data set [1] (setting [3]) and in data set [1] (setting [4]) was no less than 1 µM throughout. Moreover, in data set [2], the negative-log IC50 (pIC50) was greater than 7.00.
In the case of `CC(C)(O)Cn1cnc2c(-c3cccnc3)nc(-c3ccc(C4CC4)nc3)cc2c1=O` [Compound 81], the solubility at 2 h in data set [1] (setting [3]) and in data set [1] (setting [4]) was no less than 1 µM throughout. Besides, the pIC50 in data set [2] is greater than 7.00.
Regarding `Cn1cc(-c2nc(-c3ccc(C4CC4)nc3)cc3c(=O)n(CC(C)(C)O)cnc23)cn1` [Compound 82], the solubility at 2 h in data set [1] (setting [3]) and in data set [1] (setting [4]) was no less than 1 µM in each case. Besides, the negative logarithm of the IC50 (pIC50) in data set [2] is greater than 7.00.
For `C[C@@H](CO)n1cnc2c(-c3cnn(C)c3)nc(-c3ccc(C4CC4)nc3)cc2c1=O` [Compound 83], the solubility at 2 h in data set [1] (setting [3]) and in data set [1] (setting [4]) was no less than 1 µM each time. In data set [2], the pIC50 was greater than 7.00.
On to `C[C@@H](CO)n1cnc2c(-c3cccnc3)nc(-c3cnc(C(F)(F)F)s3)cc2c1=O` [Compound 85], for which the solubility at 2 h in data set [1] (setting [3]) and in data set [1] (setting [4]) was no less than 1 µM throughout. For the same compound, the pIC50 in data set [2] was greater than 7.00.
Regarding `C[C@@H](CO)n1cnc2c(-c3cccnc3)nc(-c3cnc(C(F)(F)F)nc3)cc2c1=O` [Compound 86], the solubility at 2 h in data set [1] (setting [3]) and in data set [1] (setting [4]) was no less than 1 µM throughout. Also, the pIC50 in data set [2] was greater than 7.00.
As for `Cn1cc(-c2nc(-c3ccc(C(F)(F)F)nc3)cc3c(=O)n([C@H]4COC[C@H]4O)cnc23)cn1` [Compound 88], the solubility – broadly, the concentration that dissolves in the medium under given conditions – at 2 h in data set [1] (setting [3]) was no less than 1 µM; in data set [1] (setting [4]) it was 0.1 to 1 µM (≈ 0.0458 to 0.458 µg/mL). The pIC50 in data set [2] was greater than 7.00.
Turning to `Cc1ncc(-c2cc3c(=O)n([C@@H](C)CO)cnc3c(-c3cccnc3)n2)s1` [Compound 89], the solubility at 2 h in data set [1] (setting [3]) and in data set [1] (setting [4]) was no less than 1 µM each time. Besides, in data set [2], the pIC50 is greater than 7.00.
Consider `Cn1cc(-c2nc(-c3ccc(Cl)cc3)cc3c(=O)n([C@H]4COC[C@H]4O)cnc23)cn1` [Compound 92], for which the solubility at 2 h in data set [1] (setting [3]) was 0.1 to 1 µM (≈ 0.0424 to 0.424 µg/mL); in data set [1] (setting [4]), less than 0.1 µM. Further, in data set [2], the pIC50 is greater than 7.00.
For `C[C@@H](CO)n1cnc2c(-c3cnn(C)c3)nc(-c3cnc(C(F)(F)F)nc3)cc2c1=O` [Compound 95] the same measures were no less than 1 µM, no less than 1 µM and greater than 7.00.
With `Cn1cc(-c2nc(-c3cnc(C(F)(F)F)nc3)cc3c(=O)n(CC(C)(C)O)cnc23)cn1` [Compound 99], the solubility at 2 h in data set [1] (setting [3]) was no less than 1 µM; in data set [1] (setting [4]), 0.1 to 1 µM (≈ 0.0445 to 0.445 µg/mL). For the same compound, the pIC50 in data set [2] was greater than 7.00.
The like results for `CC(C)(O)Cn1cnc2c(-c3cnsc3)nc(-c3ccc(C(F)(F)F)cn3)cc2c1=O` [Compound 101, 3-(2-hydroxy-2-methylpropyl)-8-(isothiazol-4-yl)-6-(5-(trifluoromethyl)pyridin-2-yl)pyrido[3,4-d]pyrimidin-4(3H)-one] were, in that order, 0.1 to 1 µM (≈ 0.0447 to 0.447 µg/mL), less than 0.1 µM and greater than 7.00.
In the case of `C[C@@H](CO)n1cnc2c(-c3cnsc3)nc(-c3ccc(C(F)(F)F)cn3)cc2c1=O` [Compound 102, (S)-3-(1-hydroxypropan-2-y1)-8-(isothiazol-4-yl)-6-(5-(trifluoromethyl)pyridin-2-yl)pyrido[3,4-d]pyrimidin-4(3H)-one], the solubility at 2 h in data set [1] (setting [3]) and in data set [1] (setting [4]) was 0.1 to 1 µM (≈ 0.0433 to 0.433 µg/mL) throughout. In data set [2], the pIC50 is greater than 7.00.
Regarding `Cn1cc(-c2nc(-c3ccc(C(F)(F)F)cn3)cc3c(=O)n(CC(C)(C)O)cnc23)cn1` [Compound 103, 3-(2-hydroxy-2-methylpropyl)-8-(1-methyl-1H-pyrazol-4-yl)-6-(5-(trifluoromethyl)pyridin-2-yl)pyrido[3,4-d]pyrimidin-4(3H)-one], the solubility at 2 h in data set [1] (setting [3]) was 0.1 to 1 µM (≈ 0.0444 to 0.444 µg/mL); in data set [1] (setting [4]), less than 0.1 µM. Besides, in data set [2], the pIC50 is greater than 7.00.
For `O=c1c2cc(-c3ccc(C(F)(F)F)cn3)nc(-c3cccnc3)c2ncn1C[C@H](O)C(F)(F)F` [Compound 104, (S)-8-(pyridin-3-yl)-3-(3,3,3-trifluoro-2-hydroxypropyl)-6-(5-(trifluoromethyl)pyridin-2-yl)pyrido[3,4-d]pyrimidin-4(3H)-one] the same measures were no less than 1 µM, no less than 1 µM and greater than 7.00.
In the case of `CC(C)(O)Cn1cnc2c(-c3cccnc3)nc(-c3ccc(C(F)(F)F)cn3)cc2c1=O` [Compound 105], the solubility at 2 h in data set [1] (setting [3]) and in data set [1] (setting [4]) was no less than 1 µM each time. Moreover, the pIC50 in data set [2] is greater than 7.00.
On to `C[C@H](O)Cn1cnc2c(-c3cnn(C)c3)nc(-c3ccc(C(F)(F)F)nc3)cc2c1=O` [Compound 109, (S)-3-(2-hydroxypropyl)-8-(1-methyl-1H-pyrazol-4-yl)-6-(6-(trifluoromethyl)pyridin-3-yl)pyrido[3,4-d]pyrimidin-4(3H)-one], for which the solubility at 2 h in data set [1] (setting [3]) and in data set [1] (setting [4]) was 0.1 to 1 µM (≈ 0.043 to 0.43 µg/mL) in each case. The pIC50 in data set [2] is greater than 7.00.
Regarding `Cn1cc(-c2nc(-c3ccc(C(F)(F)F)nc3)cc3c(=O)n(C[C@@H](O)C(F)(F)F)cnc23)cn1` [Compound 110, (R)-8-(1-methyl-1H-pyrazol-4-yl)-3-(3,3,3-trifluoro-2-hydroxypropyl)-6-(6-(trifluoromethyl)pyridin-3-yl)pyrido[3,4-d]pyrimidin-4(3H)-one], the solubility at 2 h in data set [1] (setting [3]) and in data set [1] (setting [4]) was less than 0.1 µM in each case. Moreover, the pIC50 in data set [2] is greater than 7.00.
Turning to `Cn1cc(-c2nc(-c3ccc(C(F)(F)F)nc3)cc3c(=O)n(C[C@H](O)C(F)(F)F)cnc23)cn1` [Compound 111, (S)-8-(1-methyl-1H-pyrazol-4-yl)-3-(3,3,3-trifluoro-2-hydroxypropyl)-6-(6-(trifluoromethyl)pyridin-3-y1)pyrido[3,4-d]pyrimidin-4(3H)-one], the solubility at 2 h is 0.1 to 1 µM (≈ 0.0484 to 0.484 µg/mL) in data set [1] (setting [3]) and less than 0.1 µM in data set [1] (setting [4]). The pIC50 in data set [2] was greater than 7.00.

The values above are taken from US20230295152A1 (SENDA BIOSCIENCES, INC., priority 2019, published 2023).
